# Experimental data: US20080026003A1, “Methods for inhibiting pain” (The General Hospital Corporation, priority 2000, published 2008)
# Assays:
# prodynorphin mRNA = conditions: 2×1 μg intrathecal; 24 hours after CFA
# Description: To investigate changes in the expression of prodynorphin in response to inflammation, an RNase protection assay, in situ hybridization, and immunohistochemistry were used. […] Differences between groups were compared using student the t-test or ANOVA, followed by Fisher's PLSD. For non-parametric data, the Mann-Whittney U test was applied.
# For the in situ hybridization analysis, animals were rapidly sacrificed in a CO2 chamber, and L4-L5 spinal cord segments were removed and cut on a cryostat at a thickness of 20 μm. […] An antinsense RNA probe, and the corresponding sense control probe, were labeled by in vitro transcription using linearized DNA templates for prodynorphin and dig labeling mixture for two hours at 37° C. […] Tissue Sections were air dried for two hours, fixed in 4% paraformaldehyde for 15 minutes, and acetylated in acetic anhydride (0.25%) for 10 minutes. Sections were pre-hybridized for two hours at room temperature, then incubated in hybridization buffer overnight at 60° C. […] Eight non-adjacent sections from the L4-L5 lumbar spinal cord were randomly selected, and the numbers of mRNA-positive neuronal profiles in the superficial laminae and/or deep laminae of the dorsal horn in each section were counted (under a 20× object field) by an observer blind to the treatment. […]
# NK-1 = conditions: 1 μg intrathecal 30 minutes before and 6 hours after CFA; 24 hours
# Method: The data are represented as mean+SEM.
# To explore whether ERK activation is involved in NK-1 upregulation, the MEK inhibitor U0126 was delivered intrathecally before the induction of inflammation via an osmotic pump (0.5 μg/ul/hr for 2 days). In particular, an Alzet osmotic pump (three days pump, 1 μl/hr) was filled with the MEK-inhibitor U0126 (0.5 μg/μl) in 50% DMSO, and the catheter of the pump implanted intrathecally at least three hours before CFA injection. DMSO (50%) was used as vehicle control.
# [1] = tested on: CFA-induced inflammatory pain in rats
# Description: For these studies, animals were habituated to the testing environment daily for two days before baseline testing. Except for the heat test, all the animals were placed on an elevated wire grid. For mechanical allodynia, the plantar surface of the hindpaw was stimulated with a series of von Frey hairs. The threshold was taken as the lowest force that evoked a brisk withdrawal response. For heat hyperalgesia, the plantar surface of a hindpaw was exposed to a beam of radiant heat through a transparent Perspex surface (Hargreaves et al., Pain 32:77-88, 1988). The withdrawal latency was recorded, with a maximum 15 seconds as cutoff. The withdrawal latency was averaged over three trials.
# To examine the functional consequences of ERK activation and its downstream effects on prodynorphin and NK-1 upregulation, we determined whether inhibition of ERK activation modified inflammatory pain hypersensitivity.
# ERK activation by CFA may contribute to inflammatory pain hypersensitivity either by maintaining ongoing post-translational changes or by inducing transcription of genes such as NK1 and prodynorphin. In the former case, blocking ERK activation in established inflammation would be expected to reduce the pain hypersensitivity within tens of minutes due to dephosphorylation of ERK substrates. If the contribution of ERK activation were through transcription, inhibiting ERK activation would be expected to have no immediate effect, but have a delayed effect. To distinguish between these two possible mechanisms, U0126 was intrathecally injected (1 μg) into rats with established inflammation (24 hours after CFA injection) and tested pain hypersensitivity 30 minutes, 6 hours, and 24 hours after the injection of U0126.
# PGE2 = experiment: Central PGE2 levels after intrathecal IL-1β; type: in vivo, rat; conditions: intrathecal 5 ng
# Method: To visualize the induction of Cox-2 protein in dorsal horns after peripheral inflammation, immunohistochemistry was performed on transverse spinal cord sections (20 μm) using a Cox-2 antibody (Santa Cruz) and a neuronal marker, the NeuN antibody (Chemicon), as described previously (Amay et al., Mol. Cell Neurosci. 15:331-342, 2000). In situ hybridization was performed using a digoxygenin-labeled riboprobe to visualize the induction of Cox-2 mRNA (Mannion et al., Proc. Natl. Acad. Sci. U. S. A. 96:9385, 1999). Low basal levels of Cox-2 mRNA and protein were present in dorsal horn neurons with a substantial upregulation six and 12 hours post-inflammation (FIGS. 2A-2D and 3). To determine whether this induction of Cox-2 was correlated with an increase in PGE2 levels, a 100-200 μl sample of cerebrospinal fluid was withdrawn from the cisterna magna of anaesthetized rats using a 27 G needle, and PGE2 levels were analyzed using a PGE2 enzyme-immunoassay according to the manufacturer's protocol (Amersham Pharmacia Biotech). […]
# To determine whether IL-1β induces central Cox-2, rats were subjected to intravenous or intrathecal administration of this cytokine, and Cox-2 mRNA levels in the lumbar spinal cord were assessed five hours later. […]
# Cox-2 mRNA [2] = experiment: Cox-2 mRNA in isolated spinal cord slice in vitro; type: cell-based, rat; conditions: 10 ng/ml; after three hours
# Method: Two mechanisms may contribute to central Cox-2 induction in response to peripheral inflammation: 1) sensory inflow from nerve fibers innervating the inflamed hindpaw or 2) circulating pro-inflammatory cytokines. To determine whether primary sensory neuron activity increases central Cox-2, an isolated adult rat spinal cord slice preparation with an attached dorsal root was analyzed (FIG. 5A). To prepare this spinal cord slice, the lumbar spinal cord from an adult rat under urethane anesthesia was removed and immersed in cold Kreb's solution. A 700-μm-thick transverse slice with attached L4 dorsal root (15-20 mm) was prepared and perfused with Kreb's solution saturated with 95% O2 and 5% CO2 at 36-37° C. (Baba et al., J Neurosci 19:859, 1999). The L4 dorsal root was electrically stimulated for 30 minutes using a suction electrode at 20 μA (0.05 ms, 50 Hz) for Aβ-fibers, 100 μA (0.05 ms, 50 Hz) for […] 1000 μA (0.5 ms, 50 Hz) for C-fibers. The slices were perfused with Kreb's solution for two hours before electrical stimulation, and for three hours after stimulation.
# Cox-2 mRNA [3] = experiment: Cox-2 mRNA in spinal cord and DRG after IL-1β administration in vivo; parameters: species or system rat; conditions: for upregulation of Cox-2 mRNA in the spinal cord: five hours later
# Method: (§1) To determine whether IL-1β induces central Cox-2, rats were subjected to intravenous or intrathecal administration of this cytokine, and Cox-2 mRNA levels in the lumbar spinal cord were assessed five hours later. […] IL-1β also induces Cox-2 expression in dorsal root ganglion neurons (“DRG”), which are primary sensory neurons, both in vivo after intrathecal IL-1β administration and in vitro in primary neuronal cultures. […] For this analysis, Cox-2 mRNA levels were monitored using an RNase protection assay, and protein expression was visualized by immunohistochemistry, as described herein (FIG. 10).
# p38 and ERK = experiment: MAP kinase phosphorylation in primary DRG neuron cultures; type: cell-based, rat; conditions: 10 ng/ml; 30 minutes
# Method: To investigate the intracellular signaling pathway that leads to the increase in Cox-2 mRNA in the DRG neurons following treatment with IL-1β, the activation of the NFκ-B transcription factor and members of the MAP kinase family in primary DRG neurons was studied. […] Phosphorylated p38 and ERK were visualized by standard Western blot analysis and immunohistochemistry 30 minutes after administration of 10 ng/ml IL-1β to the culture medium (FIG. 12).
# After CFA-induced inflammation, NGF is produced in the inflamed paw tissue and is retrogradely transported to the cell body of DRG neurons. NGF is critical for gene expression in DRG neurons and plays a major role in inflammatory pain (Lindsay et al., Nature 337: 362-364, 1989; and Woolf et al., Neuroscience 62:327-331, 1994). […] To determine whether NGF is required for the inflammation-induced activation of p38 and upregulation of VR1, NGF antiserum (i.p., 5 μl/g body weight, 84 mg/ml) was injected to neutralize endogenous NGF. […] Intrathecal injection of NGF (2 μg in 10 μl, twice a day for three days, Boeringer) increased both p-p38 levels and VR1 levels in DRG neurons. […] To test whether NGF acts via p38 to upregulate VR1, the p38 inhibitor SB203580 (1 μg) was co-administrated with NGF (twice a day for three days).
# Cox-2 mRNA [4] = experiment: Cox-2 mRNA induction by IL-1β in primary DRG neuron cultures; type: cell-based, rat; conditions: 1 or 10 ng/ml
# Method: as §1
# To measure the contribution of p38, ERK, and NFκ-B to IL-1β-mediated induction of Cox-2 mRNA and protein levels, specific inhibitors for each of these factors were used. p38 and ERK inhibitors each decreased the induction by IL-1β of Cox-2 mRNA in the primary DRG neuron cultures by 30% (FIG. 10).
# [5] = non-inflamed animals, 1 μg intrathecal, 30 minutes after administration
Compound,number of prodynorphin mRNA labeled neurons in the deep laminae (prodynorphin mRNA),CFA-induced NK-1 increase in the dorsal horn (Western blot) (NK-1),"heat hyperalgesia and mechanical allodynia ([1]; 1 μg intrathecal 24 hours after CFA, tested at 30 minutes)","mechanical allodynia ([1]; 1 μg intrathecal 24 hours after CFA, tested at 6 hours)","heat hyperalgesia ([1]; 1 μg intrathecal 24 hours after CFA, tested at 24 hours)","heat withdrawal latency [1, 5]","mechanical withdrawal threshold [1, 5]",upregulation of central PGE2 levels (PGE2),"central PGE2 levels (PGE2; p<0.005, n=6)",Cox-2 mRNA expression in the spinal cord in vitro (Cox-2 mRNA [2]),upregulation of Cox-2 mRNA in the spinal cord (Cox-2 mRNA [3]; intrathecal 5 ng),upregulation of Cox-2 mRNA in the spinal cord (Cox-2 mRNA [3]; intrathecal 50 ng),"Cox-2 mRNA levels in rat lumbar DRG neurons (Cox-2 mRNA [3]; intrathecal 1 and 10 ng, four hours after treatment)",upregulation of Cox-2 mRNA in the spinal cord (Cox-2 mRNA [3]; intravenous 1 μg),phosphorylation of p38 and ERK in DRG cell cultures (p38 and ERK),Cox-2 mRNA and protein levels in cultured DRG neurons (Cox-2 mRNA [4])
N#CC(=C(/N)Sc1ccccc1N)/C(C#N)=C(\N)Sc1ccccc1N [U0126],without affecting,inhibited,Neither heat hyperalgesia nor mechanical allodynia was significantly affected,decreased,decreased,113 % of vehicle control,108 % of the vehicle control,,,,,,,,,
"IL-1β: cytokine administered intravenously, intrathecally or to cultures",,,,,,,,50 fold,1204 ± 360 pg/mL,increased,20 fold,30 fold,substantially upregulated,four,lead to phosphorylation of p38 and ERK,increased significantly
